Source: patent US12091410B2, “Heterocyclic compound” (Takeda Pharmaceutical Company Limited, priority 2018, dated 2024)

target: T1, human orexin type 2 receptor (Homo sapiens, UniProt O43614); experiment: Measurement of orexin type 2 receptor agonist activity (calcium fluorescence, Fluo-4 AM, CHO cells forcibly expressing human OX2 receptor); type: cell-based; details: test compound 3 μM, DMSO = 0%, orexin A (human) 10 nM = 100%
T1 construct: expressed in transfected cells
T1 sequence (O43614 1-444): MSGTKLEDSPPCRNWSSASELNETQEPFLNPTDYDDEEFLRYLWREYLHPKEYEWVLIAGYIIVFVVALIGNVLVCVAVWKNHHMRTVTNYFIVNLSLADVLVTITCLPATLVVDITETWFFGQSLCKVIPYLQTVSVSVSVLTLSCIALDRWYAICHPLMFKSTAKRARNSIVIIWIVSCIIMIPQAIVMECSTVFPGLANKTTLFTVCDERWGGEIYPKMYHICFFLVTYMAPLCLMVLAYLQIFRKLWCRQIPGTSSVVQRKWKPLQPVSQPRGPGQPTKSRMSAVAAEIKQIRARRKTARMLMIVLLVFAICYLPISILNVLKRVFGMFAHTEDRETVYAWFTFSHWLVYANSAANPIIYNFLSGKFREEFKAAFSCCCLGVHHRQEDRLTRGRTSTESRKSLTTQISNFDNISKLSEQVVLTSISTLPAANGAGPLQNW
Excerpt: To obtain a cell clone stably expressing human orexin type 2 receptor, human orexin type 2 receptor cDNA was inserted into pcDNA3.1(+) plasmid vector (Invitrogen), and a plasmid DNA for expression of human orexin type 2 receptor (pcDNA3.1(+)/hOX2R) was cloned. The plasmid DNA was introduced into CHO-dhfr cell by an electroporation method, and human orexin type 2 receptor expressing clone cells were obtained by limiting dilution method by using G418 drug resistance as a selection marker.
CHO cells forcibly expressing human OX2 receptor were seeded in each well of 384 well black transparent bottom plate (BD Falcon) at 7,500 cells/well, and cultured for one day in a 5% CO2 incubator at 37° C. After removal of the medium in the cell plate, assay buffer A containing a calcium indicator (HBSS (Thermo Fisher Scientific), 20 mM HEPES (Thermo Fisher Scientific), 0.1% BSA (Sigma-Aldrich), 2.5 μg/mL Fluo-4 AM (DOJINDO Chemical), 0.08% Pluronic F127 (DOJINDO Chemical), 1.25 mM probenecid (DOJINDO Chemical)) was added at 30 μL/well. The plate was stood for 30 min in a 5% CO2 incubator at 37° C., and further stood at room temperature for 30 min. A test compound prepared by diluting with assay buffer B (HBSS, 20 mM HEPES, 0.1% BSA) was added at 10 μL/well, and the fluorescence value was measured by FDSSpCELL (Hamamatsu Photonics K. K.) every one sec for 1 min, and thereafter every two sec for 1 min 40 sec. The activity (%) of the test compound was calculated assuming that variation in the fluorescence value when DMSO was added instead of the test compound was 0%, and variation in the fluorescence value when orexin A (human) (PEPTIDE INSTITUTE, INC.) was added at the final concentration of 10 nM was 100%.

SMILES	OX2R agonist activity (3 μM, %) [%]
Cc1nc2c(s1)CC[C@H](NS(C)(=O)=O)[C@@H]2Cc1cccc(-c2ccccc2)c1 (racemic) [Example 17, rac-N-{(4S,5S)-4-[([1,1′-biphenyl]-3-yl)methyl]-2-methyl-4,5,6,7-tetrahydro-1,3-benzothiazol-5-yl}methanesulfonamide]	62
CC(C)n1cc2c(n1)[C@@H](COC1CCN(c3ncc(F)cn3)CC1)[C@@H](NS(C)(=O)=O)CC2 (racemic) [Example 44, rac-N-[(6S,7S)-7-({[1-(5-fluoropyrimidin-2-yl)piperidin-4-yl]oxy}methyl)-2-(propan-2-yl)-4,5,6,7-tetrahydro-2H-indazol-6-yl]methanesulfonamide]	94
CCc1cc2n(n1)[C@@H](COC1CCN(c3ncccn3)CC1)[C@@H](NS(C)(=O)=O)CC2 (racemic) [Example 28, rac-N-[(6S,7R)-2-ethyl-7-({[1-(pyrimidin-2-yl)piperidin-4-yl]oxy}methyl)-4,5,6,7-tetrahydropyrazolo[1,5-a]pyridin-6-yl]methanesulfonamide]	102
CCc1cc2n(n1)[C@@H](COC1CCN(c3ccccn3)CC1)[C@@H](NS(C)(=O)=O)CC2 (racemic) [Example 42, rac-N-[(6S,7R)-2-ethyl-7-({[1-(pyridin-2-yl)piperidin-4-yl]oxy}methyl)-4,5,6,7-tetrahydropyrazolo[1,5-a]pyridin-6-yl]methanesulfonamide]	80
Cc1nn2c(c1C)CC[C@H](NS(C)(=O)=O)[C@@H]2COC1CCN(c2ncc(F)cn2)CC1 (racemic) [Example 12, rac-N-[(6S,7R)-7-({[1-(5-fluoropyrimidin-2-yl)piperidin-4-yl]oxy}methyl)-2,3-dimethyl-4,5,6,7-tetrahydropyrazolo[1,5-a]pyridin-6-yl]methanesulfonamide]	102
Cc1ccc2c(n1)[C@@H](Cc1cccc(-c3ccccc3)c1)[C@@H](NS(C)(=O)=O)CC2 (racemic) [Example 62, rac-N-{(7S,8S)-8-[([1,1′-biphenyl]-3-yl)methyl]-2-methyl-5,6,7,8-tetrahydroquinolin-7-yl}methanesulfonamide]	72
Cc1cc2n(n1)[C@@H](COC1CCN(c3ncccn3)CC1)[C@@H](NS(C)(=O)=O)CC2 (racemic) [Example 3, rac-N-[(6S,7R)-2-methyl-7-({[1-(pyrimidin-2-yl)piperidin-4-yl]oxy}methyl)-4,5,6,7-tetrahydropyrazolo[1,5-a]pyridin-6-yl]methanesulfonamide]	82
CC(C)c1cc2n(n1)[C@@H](Cc1cccc(-c3ccccc3)c1)[C@@H](NS(C)(=O)=O)CC2 (racemic) [Example 23, rac-N-[(6S,7S)-7-[([1,1′-biphenyl]-3-yl)methyl]-2-(propan-2-yl)-4,5,6,7-tetrahydropyrazolo[1,5-a]pyridin-6-yl]methanesulfonamide]	109
CS(=O)(=O)N[C@H]1CCc2ccnn2[C@H]1COC1CCN(c2ncc(F)cn2)CC1 (racemic) [Example 9, rac-N-[(6S,7R)-7-({[1-(5-fluoropyrimidin-2-yl)piperidin-4-yl]oxy}methyl)-4,5,6,7-tetrahydropyrazolo[1,5-a]pyridin-6-yl]methanesulfonamide]	85
CCS(=O)(=O)N[C@H]1CCn2cc(C)nc2[C@H]1Cc1cccc(-c2cccc(F)c2)c1 (relative stereo) [Example 58, rel-N-{(7S,8S)-8-[(3′-fluoro[1,1′-biphenyl]-3-yl)methyl]-2-methyl-5,6,7,8-tetrahydroimidazo[1,2-a]pyridin-7-yl}ethanesulfonamide]	95
CCc1cc2n(n1)[C@@H](COC1CCN(c3ncc(F)cn3)CC1)[C@@H](NS(C)(=O)=O)CC2 (relative stereo) [Example 33, rel-N-[(6S,7R)-2-ethyl-7-({[1-(5-fluoropyrimidin-2-yl)piperidin-4-yl]oxy}methyl)-4,5,6,7-tetrahydropyrazolo[1,5-a]pyridin-6-yl]methanesulfonamide]	91
